For the test, the target named is Tyrosine-protein kinase BTK (Homo sapiens, UniProt Q06187). Briefly: Phosphorylation reactions were allowed to proceed for 120 minutes. […] After 60 minutes incubation with detection reagents, reaction plates were read on a PerkinElmer EnVision plate reader using standard TR-FRET protocol. […] IC50 values were determined by 4 parameter robust fit of TR-FRET ratio values vs. (Log10) compound concentrations.

Some results are limits rather than exact numbers.

Tyrosine-protein kinase BTK, sequence (Q06187 whole entry): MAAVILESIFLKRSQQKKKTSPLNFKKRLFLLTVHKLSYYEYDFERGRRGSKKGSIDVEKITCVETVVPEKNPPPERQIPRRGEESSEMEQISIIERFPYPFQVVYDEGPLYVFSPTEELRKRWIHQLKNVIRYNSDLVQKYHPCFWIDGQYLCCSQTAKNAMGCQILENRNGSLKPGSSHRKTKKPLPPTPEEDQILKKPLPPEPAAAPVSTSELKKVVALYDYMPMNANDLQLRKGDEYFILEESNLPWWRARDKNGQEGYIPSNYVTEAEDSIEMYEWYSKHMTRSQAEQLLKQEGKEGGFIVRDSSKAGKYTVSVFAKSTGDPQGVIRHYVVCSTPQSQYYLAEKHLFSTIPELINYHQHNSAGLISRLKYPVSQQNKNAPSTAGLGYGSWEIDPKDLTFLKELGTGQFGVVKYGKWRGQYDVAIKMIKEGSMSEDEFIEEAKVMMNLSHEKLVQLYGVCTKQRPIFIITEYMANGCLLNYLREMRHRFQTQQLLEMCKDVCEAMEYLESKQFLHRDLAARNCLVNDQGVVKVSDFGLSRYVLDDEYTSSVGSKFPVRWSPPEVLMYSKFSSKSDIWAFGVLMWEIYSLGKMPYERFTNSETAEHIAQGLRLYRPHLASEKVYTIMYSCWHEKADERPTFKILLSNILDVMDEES

Usually IC50 stands for the concentration that inhibits the measured activity by half. As for `CC(=O)N1CCC[C@@H](c2nc(-c3ccc(C(=O)Nc4cc(C)ccn4)cc3)c3c(N)nccn23)C1`, the IC50 was below 10 nM.

For the origin of these results see ChEMBL document CHEMBL5725558, “BTK Inhibitors” (2017).
